Measured values reported in US7456167B2, “Cyclopropyl fused indolobenzazepine HCV NS5B inhibitors” (Bristol-Myers Squibb Company, priority 2006, dated 2008).
pEC50, pIC50: −log10 of the molar value. Read-outs that look alike come from different tables or passages of the source.

Columns and labels:
HCV replicon cells = assay: HCV replicon FRET assay; assay type: cell-based; conditions: Hepatitis C virus
Description: FRET Assay Preparation. To perform the HCV FRET screening assay, 96-well cell culture plates were used. The FRET peptide (Anaspec, Inc.) (Taliani et al., Anal. Biochem. 1996, 240, 60-67) contains a fluorescence donor, EDANS, near one end of the peptide and an acceptor, DABCYL, near the other end. The fluorescence of the peptide is quenched by […] resonance energy transfer (RET) between the donor and the acceptor, but as the NS3 protease cleaves the peptide the products are released from RET quenching and the fluorescence of the donor becomes apparent. The assay reagent was made as follows: 5× cell Luciferase cell culture lysis reagent from Promega (#E153A) diluted to 1× with dH2O, NaCl added to 150 mM final, the FRET peptide diluted to 20 uM final from a 2 mM stock.
To prepare plates, HCV replicon cells, with or without a Renilla luciferase reporter gene, were trypsinized and placed into each well of a 96-well plate with titrated test compounds added in columns 3 through 12; columns 1 and 2 contained a control compound (HCV protease inhibitor), and the bottom row contained cells without compound. The plates were then placed in a CO2 incubator at 37° C.
Assays. Subsequent to addition of the test compounds described above (FRET Assay Preparation), at various times the plate was removed and Alamar blue solution (Trek Diagnostics, #00-100) was added per well as a measure of cellular toxicity. After reading in a Cytoflour 4000 instrument (PE Biosystems), plates were rinsed with PBS and then used for FRET assay by the addition of 30 ul of the FRET peptide assay reagent described above (FRET Assay Preparation) per well. The plate was then placed into the Cytoflour 4000 instrument which had been set to 340 excite/490 emission, automatic mode for 20 cycles and the plate read in a kinetic mode. Typically, the signal to noise using an endpoint analysis after the reads was at least three-fold. Alternatively, after Alamar blue reading, plates were rinsed with PBS, 50 ul of DMEM (high glucose) without phenol red was added and plates were then used for luciferase assay using the Promega Dual-Glo Luciferase Assay System.
Compound analysis was determined by quantification of the relative HCV replicon inhibition and the relative cytotoxicity values. To calculate cytoxicity values, the average Alamar Blue fluorescence signals from the control wells were set as 100% non-toxic. The individual signals in each of the compound test wells were then divided by the average control signal and multiplied by 100% to determine […]. To calculate the HCV replicon inhibition values, an average background value was obtained from the two wells containing the highest amount of HCV protease inhibitor at the end of the assay period. These numbers were similar to those obtained from naïve Huh-7 cells.
The background numbers were then subtracted from the average signal obtained from the control wells and this number was used as 100% activity. The individual signals in each of the compound test wells were then divided by the averaged control values after background subtraction and multiplied by 100% to determine percent activity. EC50 values for a protease inhibitor titration were calculated as the concentration which caused a 50% reduction in FRET or luciferase activity. The two numbers generated for the compound plate, percent cytoxicity and percent activity were used to determine compounds of interest for further analysis.

[1] = target: T1, HCV NS5B RdRp genotype 1b (Hepatitis C virus genotype 1b, UniProt Q9WMX2); assay: Modified HCV NS5B RdRp enzyme assay (preincubation protocol); assay type: biochemical
T1 construct: The protein was expressed with an 18 amino acid C-terminal truncation to enhance the solubility; made in house; host or cells: E. coli BL21(DE3)
T1 sequence (Q9WMX2 2420-2992): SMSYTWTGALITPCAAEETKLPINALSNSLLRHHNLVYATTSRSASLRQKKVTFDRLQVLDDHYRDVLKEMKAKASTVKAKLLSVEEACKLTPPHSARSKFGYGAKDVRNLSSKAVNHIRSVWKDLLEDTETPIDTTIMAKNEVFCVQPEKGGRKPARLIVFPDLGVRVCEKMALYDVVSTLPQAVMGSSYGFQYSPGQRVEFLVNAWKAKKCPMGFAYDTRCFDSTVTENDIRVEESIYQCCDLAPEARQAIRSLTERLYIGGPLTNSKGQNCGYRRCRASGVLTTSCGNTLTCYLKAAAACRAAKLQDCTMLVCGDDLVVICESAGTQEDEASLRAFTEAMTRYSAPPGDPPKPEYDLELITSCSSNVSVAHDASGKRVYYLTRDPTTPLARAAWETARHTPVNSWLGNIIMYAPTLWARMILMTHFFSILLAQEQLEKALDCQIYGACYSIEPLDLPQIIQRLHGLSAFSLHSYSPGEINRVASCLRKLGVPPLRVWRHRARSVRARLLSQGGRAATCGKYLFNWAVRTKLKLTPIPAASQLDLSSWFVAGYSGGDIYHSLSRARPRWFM
Description: HCV NS5B RdRp cloning, expression, and purification. The cDNA encoding the NS5B protein of HCV, genotype 1b, was cloned into the pET21a expression vector. The protein was expressed with an 18 amino acid C-terminal truncation to enhance the solubility. The E. coli competent cell line BL21(DE3) was used for expression of the protein. Cultures were grown at 37° C. for ˜4 hours until the cultures reached an optical density of 2.0 at 600 nm. The cultures were cooled to 20° C. and induced with 1 mM IPTG. Fresh ampicillin was added to a final concentration of 50 μg/ml and the cells were grown overnight at 20° C.
Cell pellets (3 L) were lysed for purification to yield 15-24 mgs of purified NS5B. The lysis buffer consisted of 20 mM Tris-HCl, pH 7.4, 500 mM NaCl, 0.5% triton X-100, 1 mM DTT, 1 mM EDTA, 20% glycerol, 0.5 mg/ml lysozyme, 10 mM MgCl2, 15 ug/ml deoxyribonuclease I, and Complete TM protease inhibitor tablets (Roche). After addition of the lysis buffer, frozen cell pellets were resuspended using a tissue homogenizer. To reduce the viscosity of the sample, aliquots of the lysate were sonicated on ice using a microtip attached to a Branson sonicator. The sonicated lysate was centrifuged at 100,000×g for 1 hr at 4° C. and filtered through a 0.2 μm filter unit (Corning).
The protein was purified using three sequential chromatography steps: Heparin sepharose CL-6B, polyU sepharose 4B, and Hitrap SP sepharose (Pharmacia). The chromatography buffers were identical to the lysis buffer but contained no lysozyme, deoxyribonuclease I, MgCl2 or protease inhibitor and the NaCl concentration of the buffer was adjusted according to the requirements for charging the protein onto the column. Each column was eluted with a NaCl gradient which varied in length from 5-50 column volumes depending on the column type. After the final chromatography step, the resulting purity of the enzyme is >90% based on SDS-PAGE analysis. The enzyme was aliquoted and stored at −80° C.
Standard HCV NS5B RdRp enzyme assay. HCV RdRp genotype 1b assays were run in a final volume of 60 μl in 96 well plates (Costar 3912). The assay buffer is composed of 20 mM Hepes, pH 7.5, 2.5 mM KCl, 2.5 mM MgCl2, 1 mM DTT, 1.6 U RNAse inhibitor (Promega N2515), 0.1 mg/ml BSA (Promega R3961), and 2% glycerol. All compounds were serially diluted (3-fold) in DMSO and diluted further in water such that the final concentration of DMSO in the assay was 2%. HCV RdRp genotype 1b enzyme was used at a final concentration of 28 nM. A polyA template was used at 6 nM, and a biotinylated oligo-dT12 primer was used at 180 nM final concentration. Template was obtained commercially (Amersham 27-4110). Biotinylated primer was prepared by Sigma Genosys. 3H-UTP was used at 0.6 μCi (0.29 μM total UTP). Reactions were initiated by the addition of enzyme, incubated at 30° C. for 60 min, and stopped by adding 25 μl of 50 mM EDTA containing SPA beads (4 μg/μl, Amersham RPNQ 0007). Plates were read on a Packard Top Count NXT after >1 hr incubation at room temperature.
Modified HCV NS5B RdRp enzyme assay. A modified enzyme assay was performed essentially as described for the standard enzyme assay except for the following: The biotinylated oligo dT12 primer was precaptured on streptavidin-coated SPA beads by mixing primer and beads in assay buffer and incubating at room temperature for one hour. Unbound primer was removed after centrifugation. The primer-bound beads were resuspended in 20 mM Hepes buffer, pH 7.5 and used in the assay at final concentrations of 20 nM primer and 0.67 μg/μl beads. Order of addition in the assay: enzyme (14 nM) was added to diluted compound followed by the addition of a mixture of template (0.2 nM), 3H-UTP (0.6 μCi, 0.29 μM), and primer-bound beads, to initiate the reaction; concentrations given are final. Reactions were allowed to proceed for 4 hours at 30° C.
IC50 values for compounds were determined using seven different [I]. […]

[2] = HCV replicon cells, FRET assay, read-out: EC50
[3] = HCV NS5B RdRp genotype 1b, preincubation protocol, read-out: IC50

| Structure (SMILES) | pEC50 (HCV replicon cells; [2]) | pIC50 [1, 3] | pEC50 (HCV replicon cells) | pIC50 [1] |
| --- | --- | --- | --- | --- |
| COc1ccc2c(c1)C1CC1(S(=O)(=O)N1CCCN(C)CC1)Cn1c-2c(C2CCCCC2)c2ccc(C(=O)O)cc21 (stereo not shown) | 6.00 to 7.70 | 6.00 to 7.70 | – | – |
| COc1ccc2c(c1)C1CC1(S(=O)(=O)N1C[C@@H](C)N(C)[C@@H](C)C1)Cn1c-2c(C2CCCCC2)c2ccc(C(=O)NS(=O)(=O)N3CCN(C)CC3)cc21 (stereo partly shown) | 6.00 to 7.70 | 6.00 to 7.70 | – | – |
| COc1ccc2c(c1)C1CC1(S(=O)(=O)N1CC[C@@H](N(C)C)C1)Cn1c-2c(C2CCCCC2)c2ccc(C(=O)NS(=O)(=O)C(C)C)cc21 (stereo partly shown) | 6.00 to 7.70 | 6.00 to 7.70 | – | – |
| COc1ccc2c(c1)C1CC1(S(=O)(=O)N1CCN3CCCC3C1)Cn1c-2c(C2CCCCC2)c2ccc(C(=O)NS(=O)(=O)N(C)C)cc21 (stereo not shown) | 6.00 to 7.70 | 6.00 to 7.70 | – | – |
| CCN1CC2CC1CN2S(=O)(=O)C12CC1c1cc(OC)ccc1-c1c(C3CCCCC3)c3ccc(C(=O)NS(=O)(=O)N(C)C)cc3n1C2 (stereo not shown) | 6.00 to 7.70 | 6.00 to 7.70 | – | – |
| COc1ccc2c(c1)C1CC1(S(=O)(=O)N1C3CCC1CC3)Cn1c-2c(C2CCCCC2)c2ccc(C(=O)NS(=O)(=O)C(C)C)cc21 (stereo not shown) | – | – | 6.00 to 7.70 | 6.00 to 7.70 |
| COc1ccc2c(c1)C1CC1(S(=O)(=O)N1C3CCC1CC(C)(O)C3)Cn1c-2c(C2CCCCC2)c2ccc(C(=O)NS(=O)(=O)N(C)C)cc21 (stereo not shown) | – | – | 6.00 to 7.70 | 6.00 to 7.70 |
| COc1ccc2c(c1)CC(S(=O)(=O)CCN1CCOCC1)Cn1c-2c(C2CCCCC2)c2ccc(C(=O)NS(=O)(=O)N(C)C)cc21 (stereo not shown) | 6.00 to 7.70 | 6.00 to 7.70 | – | – |
| COc1ccc2c(c1)C1CC1(S(=O)(=O)N1C[C@@H](C)N(C)[C@@H](C)C1)Cn1c-2c(C2CCCCC2)c2ccc(C(=O)NS(=O)(=O)C(C)C)cc21 (stereo partly shown) | 6.00 to 7.70 | 6.00 to 7.70 | – | – |
| COc1ccc2c(c1)C1CC1(S(=O)(=O)N1C3CC1CN(C)C3)Cn1c-2c(C2CCCCC2)c2ccc(C(=O)NS(=O)(=O)N3CCOCC3)cc21 (stereo not shown) | 6.00 to 7.70 | 6.00 to 7.70 | – | – |
| COc1ccc2c(c1)C1CC1(S(=O)(=O)N1C3CCC1CN(C)C3)Cn1c-2c(C2CCCCC2)c2ccc(C(=O)O)cc21 (stereo not shown) | – | – | 6.00 to 7.70 | 6.00 to 7.70 |
| COc1ccc2c(c1)C1CC1(S(=O)(=O)N1CC[C@@H](N(C)C)C1)Cn1c-2c(C2CCCCC2)c2ccc(C(=O)NS(=O)(=O)N(C)C)cc21 (stereo partly shown) | 6.00 to 7.70 | 6.00 to 7.70 | – | – |
| COc1ccc2c(c1)C1CC1(S(=O)(=O)N(C)CC(=O)N1CCOCC1)Cn1c-2c(C2CCCCC2)c2ccc(C(=O)NS(=O)(=O)N(C)C)cc21 (stereo not shown) | 6.00 to 7.70 | 6.00 to 7.70 | – | – |
| COc1ccc2c(c1)C1CC1(S(=O)(=O)N1C[C@@H](C)O[C@@H](C)C1)Cn1c-2c(C2CCCCC2)c2ccc(C(=O)NS(=O)(=O)N(C)C)cc21 (stereo partly shown) | 6.00 to 7.70 | 6.00 to 7.70 | – | – |
